± gives the standard deviation.
Assay: chemical recovery from spiked human plasma; higher = better extraction
Conditions: pooled human plasma
[1] = extraction method: SPE only (HLB 96-well)
[2] = extraction method: SPE only (HLB 96-well), PES comparison experiment
[3] = extraction method: solvent precipitation (ACN + hexane)
[4] = extraction method: PES+SPE (3 d PDMS equilibration then HLB SPE)

Compound	chemical recovery [1] [%]	chemical recovery [2] [%]	chemical recovery [3] [%]	chemical recovery [4] [%]
CCCCCCCCCCOS(=O)(=O)O [Decylsulfate]	18.8 ± 4.3	30.8 ± 9	50.4 ± 1.6	
Nc1ccc2nc3ccc(N)cc3nc2c1 [2,8-Diaminophenazine]	38.5 ± 14		53.2 ± 6.7	11.8 ± 0.64
ClC(Cl)=C(c1ccc(Cl)cc1)c1ccc(Cl)cc1 [4,4'-DDE]	0.779 ± 0.23		41.1 ± 2.4	49.3 ± 15
CCCCCCCCCC[N+](C)(C)Cc1ccccc1 [Benzyldimethyldecylammonium]			66.1 ± 3.3	
O=S(=O)(O)C(F)(F)C(F)(F)C(F)(F)C(F)(F)C(F)(F)C(F)(F)C(F)(F)F [Perfluoroheptanesulfonic-acid]	35.6 ± 2		61.6 ± 3.8	38.6 ± 6.2
CC1CC(CC2CCC(N)C(C)C2)CCC1N (configuration not stated) [Bis(4-amino-3-methylcyclohexyl)methane]			41.1 ± 7.7	
CC1=NNC(=O)N(/N=C/c2cccnc2)C1 [Pymetrozine]	13.5 ± 3.4		75.4 ± 2.9	
CCc1c(Br)c(Br)c(Br)c(Br)c1Br [Pentabromoethylbenzene]	3.34 ± 1.2			53.3 ± 3.7
Nc1nc(N)nc(N)n1 [Melamine]	1.58 ± 0.33	0.589 ± 1.2		2.47 ± 0.79
O=C1C=C(N(Cc2ccc(Cl)nc2)CC(F)F)CO1 [Flupyradifurone]	39.3 ± 3.1		76.9 ± 2.6	43.9 ± 3.3
CCCCOC(=O)c1ccc(O)cc1 [Butylparaben]	37.5 ± 1.3		64.9 ± 1.9	51.3 ± 3.1
CC(Cc1ccc(C(C)(C)C(=O)O)cc1)CN1C[C@@H](C)O[C@@H](C)C1 (some centres not stated) [Fenpropimorph-acid]	42.9 ± 4.1		67.5 ± 3.3	41.2 ± 4.4
CN(C)S(=O)(=O)c1ccc(N)cc1 [4-Amino-N,N-dimethylbenzenesulfonamide]	63.7 ± 4.4			69.6 ± 6.2
Cc1cc(Cl)ccc1/N=C/N(C)C [Chlordimeform]	24.7 ± 4.2		30.1 ± 3.3	28.8 ± 4.5
c1ccc2nc3ccccc3cc2c1 [Acridine]	28.4 ± 1.4	51.6 ± 11	49.6 ± 2.4	39.7 ± 8
C[N+](C)(C)CC1CO1 (configuration not stated) [2,3-Epoxypropyltrimethylammonium]	0.76 ± 0.94			0.728 ± 0.46
COC(=O)c1ccccc1C(=O)OC [Dimethylphthalate]			67.3 ± 4.1	46 ± 3.9
CC(C)c1ccc2cc(C(C)C)ccc2c1 [2,6-Diisopropylnaphthalene]		16.8 ± 6.9		
CC(C)(C)c1cc(-n2nc3ccccc3n2)c(O)c(C(C)(C)C)c1 [UV-320]	3.34 ± 1			
CN(C)c1ccncc1 [4-(Dimethylamino)pyridine]	2.53 ± 2.1		60.5 ± 4	0.689 ± 0.15
Nc1ccccc1 [Aniline]	4.14 ± 2.7			4.94 ± 0.92
CCOC(=O)C(C#N)=C(c1ccccc1)c1ccccc1 [Etocrylene]	36.7 ± 2.9		49.9 ± 9.2	35.4 ± 4.9
CC(C)C1CCC(Cc2ccc(Cl)cc2)C1(O)Cn1cncn1 (configuration not stated) [Ipconazole]	45.5 ± 5.7		75.8 ± 5.9	56.7 ± 6

Compound	chemical recovery [1] [%]	chemical recovery [2] [%]	chemical recovery [3] [%]	chemical recovery [4] [%]
CC(Cl)CN(C)C (configuration not stated) [2-Chloropropyldimethylamine]	1.1 ± 0.73			0.712 ± 0.094
C[C@H](CCC(=O)O)[C@H]1CC[C@H]2[C@@H]3C(=O)C[C@@H]4C[C@H](O)CC[C@]4(C)[C@H]3CC[C@]12C [7-Oxolithocholic-acid]	38.6 ± 2.2		65.4 ± 3.4	51.1 ± 5.2
CC(C)(C)c1cc(Cn2c(=O)n(Cc3cc(C(C)(C)C)c(O)c(C(C)(C)C)c3)c(=O)n(Cc3cc(C(C)(C)C)c(O)c(C(C)(C)C)c3)c2=O)cc(C(C)(C)C)c1O [Antioxidant-3114]	5.69 ± 2.6		58.4 ± 13	
O=C1NS(=O)(=O)c2ccccc21 [Saccharin]	38.6 ± 7.1			
O=C(O)COc1ccc(Cl)cc1Cl [2,4-Dichlorophenoxyacetic acid]		56.3 ± 5.5	73.2 ± 6.1	
NCCN1CCNCC1 [2-(Piperazin-1-yl)ethanamine]		1.9 ± 2.2		
N=C(N)NC(=O)Cc1c(Cl)cccc1Cl [Guanfacine]	44 ± 3.3		57.9 ± 5	43.1 ± 2.6
O=C(O)C(F)(F)C(F)(F)F [Perfluoropropanoic-acid]	3.57 ± 2.9		86.2 ± 7.5	2.17 ± 0.57
Cc1cc(C)nc(N)n1 [2-Amino-4,6-dimethylpyrimidine]	2.25 ± 2.4			
Cc1nccc2c1[nH]c1ccccc12 [Harman]	34.9 ± 2.5	48.2 ± 6	74.4 ± 3.2	36.2 ± 5.5
C[C@H](CCC(=O)O)[C@H]1CC[C@H]2[C@@H]3CC[C@@H]4C[C@H](O)CC[C@]4(C)[C@H]3C[C@H](O)[C@]12C [Deoxycholic-acid]	38.5 ± 8.1		75.8 ± 6.6	
c1ccc(NNc2ccccc2)cc1 [Hydrazobenzene]	2.13 ± 0.29			
CC(=O)c1ccc2ccccc2c1 [2-Acetonaphthone]		80.9 ± 10		
CCCCCCCCSc1nc(Nc2cc(C(C)(C)C)c(O)c(C(C)(C)C)c2)nc(SCCCCCCCC)n1 [Irganox-565]	0.236 ± 0.16			
CCC[C@@H]1C[C@@H](C(=O)N[C@@H]([C@H]2O[C@H](SC)[C@H](O)[C@@H](O)[C@H]2O)[C@@H](C)O)N(C)C1 [Lincomycin]		42.1 ± 11	74.7 ± 4.9	
COP(=S)(OC)Oc1ccc(SC)c(C)c1 [Fenthion]	59.7 ± 2.1	47 ± 8.3		1.29 ± 0.38
ClC1=C(Cl)C2(Cl)C3C4OC4C(Cl)C3C1(Cl)C2(Cl)Cl (configuration not stated) [Heptachlor epoxide]	1.06 ± 0.28		18.7 ± 2.8	
O=C(O)CCCCCCCCC(=O)O [Sebacic-acid]	48.9 ± 13			54.6 ± 13
CC[C@@H](C(N)=O)N1CCCC1=O [Levetiracetam]	21.4 ± 8.7		78 ± 3.8	
CC(C)CC(C)Nc1ccc(Nc2ccccc2)cc1 (configuration not stated) [N-(1,3-Dimethylbutyl)-N'-phenyl-1,4-phenylenediamine]	1.42 ± 1.6			
CC(C)[C@H](C(=O)O[C@H](C#N)c1cccc(Oc2ccccc2)c1)c1ccc(Cl)cc1 [Esfenvalerate]			118 ± 16	
O=C(NCc1ncc(C(F)(F)F)cc1Cl)c1c(Cl)cccc1Cl [Fluopicolide]	58.1 ± 3.7		79.1 ± 2.3	65.8 ± 11
CCCC[N+]1(C)[C@H]2CC(OC(=O)C(CO)c3ccccc3)C[C@H]1[C@H]1O[C@H]12 (some centres not stated) [Scopolamine-N-butyl]	38.4 ± 3.4	44.2 ± 6.1	65.8 ± 3.2	42.2 ± 2.6

Compound	chemical recovery [1] [%]	chemical recovery [2] [%]	chemical recovery [3] [%]	chemical recovery [4] [%]
Cc1ccc2ccc3ccc(C)cc3c2c1 [3,6-dimethylphenanthrene]	2.62 ± 0.48		71.5 ± 5	36.5 ± 13
COc1ccc(C(=O)CC(=O)c2ccc(C(C)(C)C)cc2)cc1 [Avobenzone]	8.77 ± 0.79			
CC(Oc1ccc(Oc2nc3ccc(Cl)cc3o2)cc1)C(=O)O (configuration not stated) [Fenoxaprop-P]	26.7 ± 2.6			42.2 ± 5
O=S(=O)(O)CCNC1CCCCC1 [2-(Cyclohexylamino)-ethansulfonic-acid]	2.37 ± 1.9		72.2 ± 2.7	0.697 ± 0.13
Cl[C@H]1[C@H](Cl)[C@@H](Cl)[C@H](Cl)[C@@H](Cl)[C@H]1Cl [delta-HCH]		40.6 ± 13		
NC1CCCCC1 [Cyclohexylamine]	2.07 ± 3.6		35.9 ± 9.5	2.9 ± 1.6
O=P(OCC(Br)CBr)(OCC(Br)CBr)OCC(Br)CBr (configuration not stated) [Tris(2,3-dibromopropyl)phosphate]	14.8 ± 3.3			60.7 ± 8
CCN1CCCC1CNC(=O)c1cc(S(=O)(=O)CC)c(N)cc1OC (configuration not stated) [Amisulpride]			70.3 ± 3.4	
CC1(C)O[C@@H]2C[C@H]3[C@@H]4C[C@H](F)C5=CC(=O)C=C[C@]5(C)[C@@]4(F)[C@@H](O)C[C@]3(C)[C@]2(C(=O)CO)O1 [Fluocinolone acetonide]		46.1 ± 5.2		
CON(C)C(=O)Nc1ccc(Cl)c(Cl)c1 [Linuron]	50.1 ± 0.84	50.2 ± 7.8	69.6 ± 2.5	46.9 ± 7.1
COCCOCCOCCOCCOC [Tetraglyme]	28.4 ± 3.6	39.7 ± 9	76.1 ± 3.7	31.9 ± 3.7
COc1ccc2[nH]c(SCc3ncc(C)c(OC)c3C)nc2c1 [Omeprazole-sulfide]	42 ± 3.9		72.5 ± 3.6	19.8 ± 2.5
c1ccc(COc2ccc3ccccc3c2)cc1 [Benzyl-2-naphthylether]	0.473 ± 0.12		24.2 ± 0.93	
C[C@H](CCC(=O)O)[C@H]1CC[C@H]2[C@@H]3[C@H](O)C[C@@H]4C[C@H](O)CC[C@]4(C)[C@H]3C[C@H](O)[C@]12C [Cholic-acid]	48.4 ± 3.9			
Oc1ccc(C(c2ccc(O)cc2)(C(F)(F)F)C(F)(F)F)cc1 [Bisphenol-AF]	51.2 ± 7.6		41.6 ± 2.4	86.8 ± 4.4
O=C1CCCCCCCCCCC1 [Cyclododecanone]	4.5 ± 3.9			
O=C(O)c1cc(SSc2ccc([N+](=O)[O-])c(C(=O)O)c2)ccc1[N+](=O)[O-] [DTNB]			0.0596 ± 0.028	0.204 ± 0.051
Cc1c(Br)c(Br)c(C)c(Br)c1Br [2,3,5,6-Tetrabromo-p-xylene]	17 ± 6.2		103 ± 16	83.9 ± 17
c1ccc2c(c1)Nc1ccccc1S2 [Phenothiazine]			41.2 ± 4.4	
CC(=O)Nc1c(C)n(C)n(-c2ccccc2)c1=O [N-Acetyl-4-aminoantipyrine]	43.1 ± 2.7			44.5 ± 5.9
Oc1ccc(C(c2ccccc2)(c2ccccc2)c2ccc(O)cc2)cc1 [Bisphenol-BP]	40.9 ± 7.5		35.1 ± 3.6	
CN(C)C(=O)Nc1ccc(Cl)cc1 [Monuron]	49.6 ± 3.1		74.2 ± 1.8	60.2 ± 3.6
Cn1c(N)nc2c3cccnc3ccc21 [2-Amino-3-methyl-imidazo[4,5-f]quinoline (IQ)]	11.1 ± 1.8			
